From patent US20190290729A1, “PHARMACEUTICAL ASSOCIATION OF GROWTH FACTOR RECEPTOR AGONIST AND ADHESION PROTEIN INHIBITOR FOR CONVERTING A NEOPLASTIC CELL INTO A NON-NEOPLASTIC CELL AND USES THEREOF” (HISTIDE AG, priority 2015, published 2019)
Where no end group is shown, it is not given here.

Columns and labels:
[1] = system: MG63 cells; test: p53 protein expression level, immunofluorescence staining quantified with ImageJ, osteosarcoma cells; type: cell-based, human; parameters: P53: unit not given here; conditions: for P53: Table 9, in association with SiRNA Integrin alpha 3+SiRNA Integrin beta 1 (SEQ ID NO: 141 to 163); for p53 (%): Table 4, cyclic GFR-binding peptide in association with SiRNA Integrin alpha 3 and SiRNA Integrin beta 1, 400 ng/mL, 24 hours
Method: (§1) The following starting materials and reagents were used: • Type-I collagen sponge was obtained from Sigma®. • PBS 1× was obtained from Gibco®. • MilliQ water: is water characterised in terms of resistivity (typically 18.2 MΩ·cm at 25° C.). • Low glucose Dulbecco's Modified Eagle Medium (DMEM) was obtained from Invitrogen® • Minimum Essential Medium Eagle without ascorbic acid (αMEM) was obtained from Invitrogen®. • All of the cell culture experiments were carried out without any serum in the medium for the first 8 hours of culture. • Osteosarcoma cells: MG63 cells were obtained from ATCC®. These cells were cultured in DMEM (Eagle's Minimum Essential Medium) medium supplemented with 10% fetal calf serum (FCS) and 1% penicillin/streptomycin. All cells were used at a low passage number (passage 10), were subconfluently cultured and were seeded at 10^4 cells/cm^2 for the purpose of the experiments. • Chondrosarcoma cells Hs819.T cells were obtained from ATCC®. These cells were cultured in DMEM (Eagle's Minimum Essential Medium) medium supplemented with 10% fetal calf serum (FCS) and 1% penicillin/streptomycin. All cells were used at a low passage number (passage 10), were subconfluently cultured and were seeded at 10^4 cells/cm^2 for the purpose of the experiments. • Rhabdomyosarcoma cells: A-673 cells were obtained from ATCC®. These cells were cultured in DMEM (Eagle's Minimum Essential Medium) medium supplemented with 10% fetal calf serum (FCS) and 1% penicillin/streptomycin. All cells were used at a low passage number (passage 10), were subconfluently cultured and were seeded at 10^4 cells/cm^2 for the purpose of the experiments. • Adenocarcinoma cells: HCC4006 cells were obtained from ATCC®. These cells were cultured in RPMI-1640 medium (obtained from ATCC®) supplemented with 10% fetal calf serum (FCS) and 1% penicillin/streptomycin. All cells were used at a low passage number (passage 10), were subconfluently cultured and were seeded at 10^4 cells/cm^2 for the purpose of the experiments. • CMFDA is a Cell Tracker Green obtained from Invitrogen®. • DAPI was obtained from Sigma®. • Fetal bovine serum (FBS) was obtained from Gibco®. • Penicillin/streptomycin was obtained from Invitrogen®. • The AlamarBlue® assay was obtained from Molecular Probes®. • Anti phospho-p53 antibody was obtained from Santa Cruz Biotechnology®, • Anti pRB antibody was obtained from Santa Cruz Biotechnology®, • Monoclonal anti-integrin (extracellular domain) αv, α5, α3, α4, β1, β3, β5 and β9 antibodies were obtained from Santa Cruz Biotechnology®, • Cell cytoskeletal filamentous actin (F-actin) was visualized by Alexa Fluor® 488 phalloidin Sigma® labeling. • Monoclonal anti-vinculin antibody (clone hVIN-1, produced in mouse) was obtained from Sigma®.
(§2) • All of the peptides were synthetized using conventional solution and/or solid phase peptide synthesis methods. • All of the experiments were performed with a concentration of 400 ng/mL of GFR-binding compound(s) as defined herein. • All cell culture experiments were performed with cultures on plastic coated with type-I collagen in order to mimic the physiological conditions of the human body. • The compositions of pharmaceutical compositions used in the examples below are summarized in the following table:
(§3) The cells were first fixed for 20 min with 4% paraformaldehyde/PBS at 4° C. After fixation, the cells were permeabilized in PBS containing 1% Triton X-100 for 15 min. Protein immunofluorescent visualization was performed by first treating the cells with 1% (v/v) specific monoclonal antibodies for 1 hour at 37° C. Then the samples were incubated with Alexa Fluor® 568 or 647 (F(ab′)2 fragment of IgG(H+L)) during 30 min at room temperature. The cell nuclei were counterstained in 20 ng/mL DAPI for 10 min at room temperature.
(§4) For this type of quantification the freeware image analysis ImageJ® software was used. […]

[2] = system: MG63 cells; test: pRB phosphorylation level, immunofluorescence staining quantified with ImageJ, osteosarcoma cells; type: cell-based, human; conditions: MG63 cells; for pRB: Table 9, in association with SiRNA Integrin alpha 3+SiRNA Integrin beta 1 (SEQ ID NO: 141 to 163); for pRB (%): Table 4, cyclic GFR-binding peptide in association with SiRNA Integrin alpha 3 and SiRNA Integrin beta 1, 400 ng/mL, 24 hours
Method: as §1, §2, §3, §4

[3] = biological target: growth factor receptors; test: cell-based or functional assay

Molecule	P53 [1]	pRB [2]	p53 (%) [1] [%]	pRB (%) [2] [%]	p-Smad1/5/8 (%) [3] [%]
CPKPSSAPTQLSAISTLYLDDSSNVILKNYQMIVVRA (Non-cyclic GFR-binding peptide) [SEQ ID NO: 159]	44	9	–	–	–
CPSSAPTQLSATSVLYYDDSSNVILRKHRQHNK (Non-cyclic GFR-binding peptide) [SEQ ID NO: 150]	41	11	–	–	–
CRNVQCRPTQVQLSAISTLYLEIVRKKPLKNYQTLEDH (Non-cyclic GFR-binding peptide) [SEQ ID NO: 149]	35	12	–	–	–
CSIPKASSVPTELSATSVLYYDEYDEKVVLRKHEMVVEG (Non-cyclic GFR-binding peptide) [SEQ ID NO: 153]	39	10	–	–	–
CTVPKPSSAPTQLSPISVLYKDDSSNVILKYHYNMVVRASGSH (Non-cyclic GFR-binding peptide) [SEQ ID NO: 147]	37	8	–	–	–
GTPGPKVPKPSSAPTQLSAISTLYLDEYDKVVLKNYQNMAVR (Non-cyclic GFR-binding peptide) [SEQ ID NO: 163]	41	7	–	–	–
SRVAARSVKMAKVGGGGGGGKEVQVAAEEHGGGGGG (not fully specified; also: cyclic peptide) [SEQ ID NO: 38213]	–	–	49	21	–
SRVLLRPVQMRKIDKGVVTYKKATVLLEEHDKGVVTY (not fully specified; also: cyclic peptide) [SEQ ID NO: 38216]	–	–	41	11	–
TPTSSSPINTLYFDDMGVPTYGKIPSSVVDDEYDKVV (not fully specified; also: cyclic peptide) [SEQ ID NO: 38207]	–	–	41	13	–
TQVAARPVQTRKIDDMGVPTKKATVAAEDHDKGVVTY (not fully specified; also: cyclic peptide) [SEQ ID NO: 38217]	–	–	42	9	–
VPEAASSLSMLFFEIVRKKPIFLKVYPAATVEDKGVVTY (not fully specified; also: cyclic peptide) [SEQ ID NO: 38201]	–	–	40	19	–
VPQAAEPLPMLYYDKGVVTYEQLSNAAVRSDKGVVTY (also: cyclic peptide) [SEQ ID NO: 38210]	–	–	40	12	–
VPQQQEPLTTLYYDEYDKVVEQLSNQQVKSNDKQQII (also: cyclic peptide) [SEQ ID NO: 38211]	–	–	47	14	–
VPTAAEPISMLYLDEYDKVVKFKYEAAAVSNDKQQII (also: cyclic peptide) [SEQ ID NO: 38206]	–	–	36	8	–
VPTAASAISILYLDAANNVVLKNYQAAVVEDKGVVTY (also: cyclic peptide) [SEQ ID NO: 38200]	–	–	41	17	–
VPTDDSATSTLYYDKGVVTYLRKHRDDEHSDKGVVTY (also: cyclic peptide) [SEQ ID NO: 38214]	–	–	48	18	–
VPTGGEPLTTLYYNDKQQIIEQLSNGGEHSDDMGVPT (also: cyclic peptide) [SEQ ID NO: 38215]	–	–	39	16	–
VPTMMSNITTQIMRIKPHQGQHIGEMSMMQHNDEYDKVV (also: cyclic peptide) [SEQ ID NO: 38212]	–	–	51	14	–
VPTSSSPISTLYIDKGVVTYLKYHYSSVAEDEYDKVV (not fully specified; also: cyclic peptide) [SEQ ID NO: 38205]	–	–	40	16	–
VPTVVSAISTLYLRIKPHQGQHLKNYQVVVVENDKQQII (also: cyclic peptide) [SEQ ID NO: 38202]	–	–	42	9	–
VPTVVSPISMLYIDDMGVPTYKQYEVVVVEDDMGVPT (also: cyclic peptide) [SEQ ID NO: 38208]	–	–	39	9	–
WWFWGKVPKPSSAPTQLSAISTLYLDEYDKVVLKNYQNMVVR (Non-cyclic GFR-binding peptide) [SEQ ID NO: 162]	39	8	–	–	–
NDEGLECVPTEERPVQVRKIRIKPHQGQKKATVFLQHNK (not fully specified) [GFR-binding compound SEQ ID NO: 54]	–	–	–	–	41
ASASPSSVPQDLEPLTILYYVGRTPKVEQLSNMV [GFR-binding compound SEQ ID NO: 55]	–	–	–	–	32
RNVQCRPTQLEPLPIVYYEIVRKKPEQLSNTLEDHLA (not fully specified) [GFR-binding compound SEQ ID NO: 56]	–	–	–	–	47
VPTHHSAISTLYLELAGEKPLKNYQFLQHNK [GFR-binding compound SEQ ID NO: 57]	–	–	–	–	38
NDEGLECVPTEERPVQVRKIRIKPHQGQKKATVFLQHNK (not fully specified) [GFR-binding compound SEQ ID NO: 59]	–	–	–	–	34
RNVQCRPTQLEPLPIVYYEIVRKKPEQLSNTLEDHLA (not fully specified) [GFR-binding compound SEQ ID NO: 61]	–	–	–	–	44
VSQDLSAISTLYLKIVRKEPLKNYQEMVEE [GFR-binding compound SEQ ID NO: 58]	–	–	–	–	49
